# US8546579B2, “Bicycloheteroaryl compounds as P2X7 modulators and uses thereof” (Evotec (US) Inc., priority 2006, dated 2013)
# Biological target: T1, P2X7 receptor (Homo sapiens, UniProt Q99572)
# T1 construct: host or cells: THP-1 cells differentiated with LPS and IFN-γ
# T1 sequence (Q99572 1-595): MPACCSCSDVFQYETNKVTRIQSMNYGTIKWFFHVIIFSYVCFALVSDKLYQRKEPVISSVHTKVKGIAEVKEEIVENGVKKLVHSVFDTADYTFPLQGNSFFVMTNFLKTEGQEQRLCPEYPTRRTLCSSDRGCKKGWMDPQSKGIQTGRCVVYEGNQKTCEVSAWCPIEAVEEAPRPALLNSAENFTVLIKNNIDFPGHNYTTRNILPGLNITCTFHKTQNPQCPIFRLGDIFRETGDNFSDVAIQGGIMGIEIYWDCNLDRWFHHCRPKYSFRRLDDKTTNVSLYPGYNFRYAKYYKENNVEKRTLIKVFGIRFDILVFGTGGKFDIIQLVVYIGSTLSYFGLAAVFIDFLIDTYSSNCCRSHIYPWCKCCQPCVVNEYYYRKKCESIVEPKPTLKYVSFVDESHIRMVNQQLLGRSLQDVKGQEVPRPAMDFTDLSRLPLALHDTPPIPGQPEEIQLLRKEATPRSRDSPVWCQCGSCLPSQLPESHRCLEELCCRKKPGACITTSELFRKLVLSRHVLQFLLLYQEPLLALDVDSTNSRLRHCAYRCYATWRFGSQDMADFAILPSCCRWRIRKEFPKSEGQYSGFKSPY
# Assay: IL-1β release assay in differentiated THP-1 cells stimulated with BzATP (Example 9)
# Assay type: cell-based
# Set-up: inhibition: dose or concentration left out as unconfirmed
# Details: 0.1 μM compound; differentiated THP-1 cells, BzATP 250 uM; "*" class symbols; read-out: IL-1β % Inhib. ("*" symbols: at 0.1 μM)
# Experimental: THP-1 cells (ATCC Cat # 285-IF-100) are plated in 96 well plates at a concentration of 200,000 cells per well and allowed to differentiate in RPMI-1640 media (ATCC Cat # 30-2001) containing 10% FBS, 100 IU/mL penicillin, 100 ug/mL streptomycin, 100 ng/mL LPS and 100 ng/mL IFN-γ for 16 hours. Following differentiation, the cells are treated for an additional 2 hours in RPMI-1640 media containing 100 IU/mL penicillin, 100 ug/mL streptomycin and fresh LPS at 100 ng/mL. The cells are then pretreated for 30 minutes with the compound of interest at the appropriate concentration in RPMI media containing 100 IU/mL penicillin, 100 ug/mL streptomycin. Following the pretreatment 2′,3′-O-(4-benzoylbenzoyl)-adenosine 5′-triphosphate (Sigma Aldrich Cat # B6396) is added to a final concentration of 250 uM and the cells are incubated for an additional 45 minutes. 30 uL of cell supernatant is then collected and IL-1β levels determined via ELISA (R&D systems Cat. # HSLB50) according to manufacturer's recommendations using the Tecan Safire plate reader. Background adjusted IL-1β levels of drug treated and non-treated cells are used to calculate the percent inhibition.
# The compounds set forth in Table 1 were tested for activity in a cellular model as described herein. Specifically, cells were pretreated with differing amounts of the compound under test and released IL-1β determined as in Example 9, above. Measurements were made and IC50 values, presented in Table 2, below, were determined by fitting the data to a four parameter logistic equation using GraphPad Prism software (GraphPad Software, Inc). The equation may be expressed by the following formula: Y=Bottom+(Top−Bottom)/(1+10^((Log EC50−X)*HillSlope)) Where X is the logarithm of concentration, Y is the response and Y starts at Bottom and goes to Top with a sigmoid shape.
row,SMILES,inhibition at 0.1 µM
1,Cc1cc(C)cc(CC(=O)Nc2cccc3c(=O)n(Cc4ccc(OC(F)(F)F)cc4)ccc23)c1 [Compound 1599],0 to 25%

# Same assay, conditions: 0.1 μM compound; differentiated THP-1 cells, BzATP 250 uM; '*' class symbols; read-out: IL-1β % Inhib. (asterisk classes, 0.1 μM)
row,SMILES,inhibition at 0.1 µM
1,Cc1ccccc1CCC(=O)Nc1cccc2c(=O)n(C)ccc12 [Compound 1057],0 to 25%
2,COCCn1ccc2c(NC(=O)CCc3ccccc3C)cccc2c1=O [Compound 1062],26 to 50%
3,COc1cc(OC)cc(C(=O)Nc2cccc3c(=O)n(CCN4CCOCC4)ccc23)c1 [Compound 1196],0 to 25%

# Same assay, conditions: 0.3 μM compound; differentiated THP-1 cells, BzATP 250 uM; "+" class symbols; read-out: IL-1β % Inhib. @ 0.3 μM
row,SMILES,inhibition at 0.3 µM
1,CC(C)(C)OC(=O)N1CCC[C@H]1Cn1ccc2c(NC(=O)Cc3ccc(Cl)c(C(F)(F)F)c3)cccc2c1=O [Compound 1621],≥ 76%

# Same assay, conditions: 0.3 μM compound; differentiated THP-1 cells, BzATP 250 uM; '+' class symbols; read-out: IL-1β % Inhib. @ 0.3 μM
row,SMILES,inhibition at 0.3 µM
1,O=C(CCc1ccccc1Cl)Nc1cccc2c(=O)n(CC3CCOCC3)ccc12 [Compound 1031],26 to 50%
2,O=C(Nc1cccc2c(=O)n(CCN3CCOCC3)ccc12)c1ccc(-c2ccccc2)o1 [Compound 1040],0 to 25%
3,CN(C)CCn1ccc2c(NC(=O)Cc3ccc(F)cc3)cccc2c1=O [Compound 1018],0 to 25%
4,Cc1cccc(CCC(=O)Nc2cccc3c(=O)n(CC4CCOCC4)ccc23)c1 [Compound 1130],0 to 25%
5,COc1ccc(CC(=O)Nc2cccc3c(=O)n(CCN(C)C)ccc23)cc1OC [Compound 1158],0 to 25%
6,COCCn1ccc2c(NC(=O)Cc3c(C)cc(C)cc3C)cccc2c1=O [Compound 1065],0 to 25%
7,COc1ccc(CC(=O)Nc2cccc3c(=O)n(CCN(C)C)ccc23)cc1C [Compound 1178],0 to 25%
8,CN(C)CCn1ccc2c(NC(=O)C(Cl)c3ccccc3)cccc2c1=O (centres unmarked) [Compound 1017],26 to 50%
9,CN(C)CCn1ccc2c(NC(=O)CCc3ccc4c(c3)OCO4)cccc2c1=O [Compound 1038],0 to 25%
10,CN(C)CCn1ccc2c(NC(=O)c3cc(Cl)ccc3Cl)cccc2c1=O [Compound 1139],0 to 25%
11,CN(C)CCn1ccc2c(NC(=O)c3ccc4ccccc4c3)cccc2c1=O [Compound 1153],0 to 25%
12,CN(C)CCn1ccc2c(NC(=O)CCc3ccccc3)cccc2c1=O [Compound 1003],0 to 25%
13,Cc1ccccc1C(=O)Nc1cccc2c(=O)n(CCN(C)C)ccc12 [Compound 1007],0 to 25%
14,O=C(CCc1ccccc1Cl)Nc1cccc2c(=O)n(Cc3cccnc3)ccc12 [Compound 1079],0 to 25%

# Same assay, conditions: 0.3 μM compound; differentiated THP-1 cells, BzATP 250 uM; symbols + to ++++; read-out: IL-1β % Inhib. @ 0.3 μM
row,SMILES,inhibition at 0.3 µM
1,O=C(Cc1cccc2ccccc12)Nc1cccc2c(=O)n(CCN3CCOCC3)ccc12 [Compound 1203],0 to 25%
2,O=C(Nc1cccc2c(=O)n(Cc3cccnc3)ccc12)[C@@]12C[C@@H]3C[C@@H](C[C@@H]1C3)C2 [Compound 1362],0 to 25%
3,COCCn1ccc2c(NC(=O)Cc3cc(OC)cc(OC)c3)cccc2c1=O [Compound 1322],0 to 25%
4,COc1ccccc1CC(=O)Nc1cccc2c(=O)n(CC(C)(C)C)ccc12 [Compound 1254],0 to 25%
5,CCOc1ccc(CC(=O)Nc2cccc3c(=O)n(CCN4CCOCC4)ccc23)cc1 [Compound 1213],0 to 25%
6,COCCn1ccc2c(NC(=O)c3ccccc3C)cccc2c1=O [Compound 1310],0 to 25%
7,O=C(Nc1cccc2c(=O)n(CCN3CCOCC3)ccc12)c1cccc2c1OCCO2 [Compound 1224],0 to 25%
8,CC(C(=O)Nc1cccc2c(=O)n(CCN3CCOCC3)ccc12)c1ccccc1 (centres unmarked) [Compound 1200],0 to 25%
9,Cn1ccc2c(NC(=O)c3cc4ccccc4o3)cccc2c1=O [Compound 1300],0 to 25%
10,Cc1cccc(CCC(=O)Nc2cccc3c(=O)n(CC(C)(C)C)ccc23)c1 [Compound 1284],0 to 25%
11,O=C(Cc1ccc2c(c1)OCO2)Nc1cccc2c(=O)n(CCN3CCOCC3)ccc12 [Compound 1217],0 to 25%
12,COc1c(C)cc(C(=O)Nc2cccc3c(=O)n(CCN4CCOCC4)ccc23)cc1C [Compound 1219],26 to 50%
13,O=C(Nc1cccc2c(=O)n(CCN3CCOCC3)ccc12)c1cc2cc(Cl)ccc2o1 [Compound 1238],26 to 50%
14,COc1ccc(CC(=O)Nc2cccc3c(=O)n(C)ccc23)cc1 [Compound 1299],0 to 25%
15,CC(C)(C)Cn1ccc2c(NC(=O)CCc3cccc(Cl)c3)cccc2c1=O [Compound 1287],0 to 25%
16,CCOc1ccccc1CC(=O)Nc1cccc2c(=O)n(CCN3CCOCC3)ccc12 [Compound 1233],0 to 25%
17,CCOc1ccccc1CC(=O)Nc1cccc2c(=O)n(Cc3cccnc3)ccc12 [Compound 1366],26 to 50%
18,Cn1ccc2c(NC(=O)Cc3ccc4c(c3)OCO4)cccc2c1=O [Compound 1301],0 to 25%
19,COc1ccc(CC(=O)Nc2cccc3c(=O)n(Cc4cccnc4)ccc23)cc1OC [Compound 1354],0 to 25%

# Same assay, conditions: THP-1; read-out: IL-1β % Inhib.
row,SMILES,inhibition
1,O=C(Nc1cccc2c(=O)n(CC3CCOCC3)ccc12)c1ccc(-c2ccccc2)cc1 [Compound 1408],0 to 25%
2,Cc1cc(C(=O)Nc2cccc3c(=O)n(CCCN4CCCC4=O)ccc23)ccc1Cl [Compound 1503],0 to 25%
3,COCCn1ccc2c(NC(=O)c3cc(C)ccc3C)cccc2c1=O [Compound 1427],26 to 50%
4,Cc1cccc(C(=O)Nc2cccc3c(=O)n(CCCN4CCCC4=O)ccc23)c1Cl [Compound 1544],0 to 25%
5,COc1cccc(CCC(=O)Nc2cccc3c(=O)n(CCCN4CCCC4=O)ccc23)c1 [Compound 1497],26 to 50%
6,COc1ccc(CC(=O)Nc2cccc3c(=O)n(CCCN4CCCC4=O)ccc23)cc1C [Compound 1539],0 to 25%
7,COc1cc(CC(=O)Nc2cccc3c(=O)n(CC4CCN(C)CC4)ccc23)cc(OC)c1 [Compound 1477],0 to 25%
8,Cc1ccc(C(=O)Nc2cccc3c(=O)n(Cc4cccnc4)ccc23)cc1Cl [Compound 1451],0 to 25%
9,O=C(Nc1cccc2c(=O)n(Cc3cccnc3)ccc12)c1cc(Cl)cc(Cl)c1 [Compound 1443],0 to 25%
10,CC(C)(C)Cn1ccc2c(NC(=O)CCc3ccc(Cl)cc3)cccc2c1=O [Compound 1417],26 to 50%
11,COCCn1ccc2c(NC(=O)Cc3ccccc3C)cccc2c1=O [Compound 1438],26 to 50%
12,Cc1cc(C(=O)Nc2cccc3c(=O)n(Cc4ccc(OC(F)(F)F)cc4)ccc23)ccc1Cl [Compound 1559],0 to 25%
13,O=C(Nc1cccc2c(=O)n(Cc3ccc(OC(F)(F)F)cc3)ccc12)c1ccc(-c2ccccc2)o1 [Compound 1551],0 to 25%
14,CN1CCC(Cn2ccc3c(NC(=O)c4ccc5ccccc5c4)cccc3c2=O)CC1 [Compound 1471],0 to 25%
15,Cc1cc(C(=O)Nc2cccc3c(=O)n(Cc4cccnc4)ccc23)ccc1F [Compound 1454],0 to 25%
16,Cc1cc(C(=O)Nc2cccc3c(=O)n(CCCN4CCCC4=O)ccc23)ccc1F [Compound 1536],0 to 25%
17,COc1ccc(CCC(=O)Nc2cccc3c(=O)n(Cc4ccc(OC(F)(F)F)cc4)ccc23)cc1 [Compound 1572],0 to 25%
18,O=C(Cc1cccc2ccccc12)Nc1cccc2c(=O)n(Cc3ccc(OC(F)(F)F)cc3)ccc12 [Compound 1573],0 to 25%

# Same assay, conditions: THP-1 cells, BzATP-stimulated IL-1β release, four parameter logistic fit
row,SMILES,IC50
1,CN(C)CCn1ccc2c(NC(=O)Cc3ccc(F)cc3)cccc2c1=O [Compound 1018],> 1000 nM
2,CN(C)CCn1ccc2c(NC(=O)C(Cl)c3ccccc3)cccc2c1=O (centres unmarked) [Compound 1017],367 nM
3,CCOc1ccccc1CC(=O)Nc1cccc2c(=O)n(Cc3cccnc3)ccc12 [Compound 1366],410 nM
4,CN(C)CCn1ccc2c(NC(=O)CCc3ccccc3)cccc2c1=O [Compound 1003],> 1000 nM
5,CC(C)(C)OC(=O)N1CCC[C@H]1Cn1ccc2c(NC(=O)Cc3ccc(Cl)c(C(F)(F)F)c3)cccc2c1=O [Compound 1621],6.86 nM
6,Cc1ccccc1C(=O)Nc1cccc2c(=O)n(CCN(C)C)ccc12 [Compound 1007],> 1000 nM
